Assay results published in US10201507B2, “Modulators of intracellular chloride concentration for treating fragile X syndrome” (NEUROCHLORE, priority 2012, dated 2019).
Entries after “also recorded” stand apart in the source; their conditions may differ.

How the values were obtained:
hippocampal slices = test: Extracellular field potentials / spike frequency in hippocampal slices at P15 on isoguvacine; assay type: cell-based, mouse; conditions: for normalized spike frequency: P15, isoguvacine (10 μM)
Description: Recording were made in the hippocampal slices using tungsten wire electrodes (diameter: 50 μm, California Fine Wire, Grover Beach, Calif.) and a low-noise multichannel DAM-8A amplifiers (WPI, GB; […]; gain: ×1000). The signals were digitized using an analogue-to-digital converter (Digidata 1440A, Axon Instruments, USA). pCLAMP 10.1, Clampfit 10.1 (Axon Instruments, USA), MiniAnalysis 6.03 (Synaptosoft, Decatur, Calif.) and Origin 7.5 (Microcal Software, USA) programs were used for the acquisition and analysis of the synaptic activities. Sampling interval per signal was 100 microseconds (10 kHz).
To test whether depolarizing actions of GABA were associated with neuronal excitation, the effect of the GABAA receptor agonist isoguvacine was tested. […] To test whether maternal treatment with bumetanide before delivery switches the action of GABA from excitatory to inhibitory in offsprings at P15, pregnant females were treated orally 1 day before delivery with bumetanide (2-2.5 mg/kg in drinking water) and juvenile offspring neurons recorded at P15. […] Therefore, excitatory actions of GABA during delivery produce long term deleterious effects on electrophysiological parameters of FXS juvenile neurons. In FXS mice, GABAergic inputs are excitatory and contribute to hyperexcitability of the network. Bumetanide decreases [Cl^−]i and consequently reduces contribution of excitatory GABAergic inputs in the overall network activity.

CA3 pyramidal cells = test: Single GABAA channel recordings of driving force of GABA (DFGABA) in hippocampal slices, drug applied to slice; assay type: cell-based, mouse; conditions: FXS neurons at P0 (birth); oxytocin 1 μM
Description: Mice lacking Fmr1 (referred to as Fmr1^−/−) were bred in our animal facility. […] For all experiments, Fmr1^−/− mice were used with wild-type littermates as a control group. The offspring were used for experiments at E18, P0, P2, P4, P7, P9, P15 and P30. Experiments were carried out on offspring of either sex and in a blind manner at E18 and P0.
Experiments were performed on fetuses and neonatal wild type and Fragile X mice from the embryonic day […] to the postnatal day P38 (term is E21). All of the research was performed in compliance with the national guidelines on human care and use of laboratory animals and approved by INSERM.
Hippocampal slices (300-500 μm thick) were prepared using a Microm tissue slicer (International GmbH, Germany) as described previously (Tyzio et al., 2006, 2008). Slices were kept in oxygenated (95% O2/5% CO2) artificial cerebrospinal fluid (ACSF) of the following composition (in mM): NaCl 126, KCl 3.5, CaCl2 2.0, MgCl2 1.3, NaHCO3 25, NaH2PO4 1.2 and glucose 11 (pH 7.4) at room temperature (20-22° C.) at least 1 hour before use.
For recordings, slices were placed into a conventional fully submerged chamber superfused with ACSF at a rate of 2-3 ml/min at room temperature. Patch clamp recordings from visually identified CA3 pyramidal cells in cell-attached configuration were performed using EPC-10 amplifier (HEKA Elektronik Dr. Schulze GmbH, Lambrecht/Pfalz, Germany). Patch pipette solution for recordings of single GABAA channels contained (in mM): NaCl 120, KCl 5, TEA-Cl 20, 4-aminopyridine 5, CaCl2 0.1, MgCl2 10, glucose 10, Hepes-NaOH 10 buffered to pH 7.2-7.3 and GABA 2 μM. Analysis of currents through single channels and current-voltage relationships were performed using Clampfit 9.2 (Axon Instruments, Union City, Calif.). Recordings were digitized (10 kHz) online with Digidata-1200 interface card (Axon Instruments, Union City, Calif.) and analyzed offline with Axon package, MiniAnalysis (S (Synaptsoft, Decatur, Ga.), and Origin (Microcal Software, Northampton, Mass.). […]

SMILES	normalized spike frequency (hippocampal slices; FXS mice) [%]	normalized spike frequency (hippocampal slices; WT mice) [%]	Effect on field potential recordings (in words) (hippocampal slices; naive neurons, P15, isoguvacine 2 μM)	Effect on DFGABA (in words) (CA3 pyramidal cells)
O=C(O)C1=CCNCC1 [isoguvacine]	165.8±13.5	67.9±6.1	inhibited or did not affect field potential recordings	
CC[C@H](C)[C@@H]1NC(=O)[C@H](Cc2ccc(O)cc2)NC(=O)[C@@H](N)CSSC[C@@H](C(=O)N2CCC[C@H]2C(=O)N[C@@H](CC(C)C)C(=O)NCC(N)=O)NC(=O)[C@H](CC(N)=O)NC(=O)[C@H](CCC(N)=O)NC1=O [oxytocin]				shift it to hyperpolarization; also recorded: shifted DFGABA
